Activity calls are given as the source filed them. The calls are words filed in the database; no cut-off is given here.
Legend:
[1] = system: Hepatocyte; experiment: Inhibition of glucose production in Sprague-Dawley rat primary hepatocytes grown under gluconeogenic medium assessed as glucose production level at 20 uM incubated for 6 hrs by glucose assay reagent based glucose oxidase method (reference value: 100%); type: functional; parameters: scale not given: the % may be the effect or the level left
[2] = molecular target: AMP-activated protein kinase alpha-1/beta-2/gamma-3 (Homo sapiens) (UniProt O43741+Q13131+Q9UGI9); experiment: Activation of human recombinant AMPKalpha1beta2gamma3 expressed in Escherichia coli at 20 uM incubated for 1 hr using serine/threonine kinase substrate
[3] = system: L6; experiment: Inhibition of mitochondrial membranes potential in rat L6 cells assessed as mitochondrial membranes potential level at 20 uM incubated for 40 mins by JC1 dye staining based fluorescence assay (reference value: 100 +/- 2.8%); type: functional; parameters: scale not given: the % may be the effect or the level left
[4] = system: Hepatocyte; experiment: Inhibition of glucose production in Sprague-Dawley rat primary hepatocytes grown under gluconeogenic medium incubated for 6 hrs by glucose assay reagent based glucose oxidase method (reference value: 100%); type: functional, cell-based
[5] = Inhibition of oxygen consumption rate in isolated mitochondria from rat L6 cells assessed as oxygen consumption level at 10 uM (reference value: 100 +/- 1.9%); type: functional; parameters: scale not given: the % may be the effect or the level left
[6] = Tmax in Sprague-Dawley rat at 2 mg/kg, iv; type: ADME, organism-based; settings: in vivo
[7] = system: L6; experiment: Inhibition of oxygen consumption rate in rat L6 cells assessed as oxygen consumption level at 20 uM (reference value: 100 +/- 1.6%); type: functional; parameters: scale not given: the % may be the effect or the level left
[8] = Inhibition of oxygen consumption rate in isolated mitochondria from rat L6 cells assessed as oxygen consumption level at 1.2 uM (reference value: 100 +/- 1.9%); type: functional; parameters: scale not given: the % may be the effect or the level left
[9] = molecular target: AMPK alpha2/beta1/gamma1 (Homo sapiens) (UniProt P54646+P54619+Q9Y478); experiment: Activation of human recombinant AMPKalpha2beta1gamma1 expressed in Escherichia coli at 20 uM incubated for 1 hr using serine/threonine kinase substrate
[10] = Inhibition of oxygen consumption rate in isolated mitochondria from rat L6 cells assessed as oxygen consumption level at 2.5 uM (reference value: 100 +/- 1.9%); type: functional; parameters: scale not given: the % may be the effect or the level left
[11] = system: Hepatocyte; experiment: Inhibition of glucose production in Sprague-Dawley rat primary hepatocytes grown under gluconeogenic medium assessed as glucose production level at 5 uM incubated for 6 hrs by glucose assay reagent based glucose oxidase method (reference value: 100%); type: functional; parameters: scale not given: the % may be the effect or the level left
[12] = Cmax in Sprague-Dawley rat at 2 mg/kg, iv; type: ADME, organism-based; parameters: dose 2 mg/kg, route intravenous; settings: in vivo
[13] = system: Hepatocyte; experiment: Potency index, ratio of berberine potency to compound potency for inhibition of glucose production in Sprague-Dawley rat primary hepatocytes grown under gluconeogenic medium aincubated for 6 hrs by glucose assay reagent based glucose oxidase method; type: functional
[14] = molecular target: Voltage-gated inwardly rectifying potassium channel KCNH2 (Homo sapiens, UniProt Q12809); experiment: Inhibition of human ERG by patch clamp assay
[15] = system: L6; experiment: Inhibition of oxygen consumption rate in isolated mitochondria from rat L6 cells; type: functional
[16] = MRT in C57BL/6J mouse at 10 mg/kg, po; type: ADME, organism-based; settings: in vivo
[17] = system: Mus musculus; experiment: Antidiabetic activity in db/db mouse assessed as effect on glucose tolerance capacity by measuring blood glucose AUC level at 120 mg/kg/day dosed via gavage for 4 weeks by OGTT; type: functional, organism-based
[18] = AUC in C57BL/6J mouse at 10 mg/kg, po; type: ADME, organism-based; settings: in vivo
[19] = Inhibition of oxygen consumption rate in isolated mitochondria from rat L6 cells assessed as oxygen consumption level at 5 uM (reference value: 100 +/- 1.9%); type: functional; parameters: scale not given: the % may be the effect or the level left
[20] = molecular target: AMPK alpha2/beta2/gamma1 (Homo sapiens) (UniProt P54646+O43741+P54619); experiment: Activation of human recombinant AMPKalpha2beta2gamma1 expressed in Escherichia coli at 20 uM incubated for 1 hr using serine/threonine kinase substrate
[21] = AUCt in Sprague-Dawley rat at 2 mg/kg, iv; type: ADME, organism-based; settings: in vivo
[22] = Oral bioavailability in Sprague-Dawley rat at 10 mg/kg; type: ADME, organism-based; settings: in vivo
[23] = Half life in Sprague-Dawley rat at 2 mg/kg, iv; type: ADME, organism-based; settings: in vivo
[24] = molecular target: AMPK alpha1/beta1/gamma2 (Homo sapiens) (UniProt Q9UGJ0+Q9Y478+Q13131); experiment: Activation of human recombinant AMPKalpha1beta1gamma2 expressed in Escherichia coli at 20 uM incubated for 1 hr using serine/threonine kinase substrate
[25] = molecular target: AMP-activated protein kinase (AMPK) alpha-1/beta-1/gamma-1 (Homo sapiens) (UniProt P54619+Q9Y478+Q13131); experiment: Activation of human recombinant AMPKalpha1beta1gamma1 expressed in Escherichia coli at 20 uM incubated for 1 hr using serine/threonine kinase substrate
[26] = system: L6; experiment: Activation of AMPKalpha in rat L6 cells assessed as increase in ACC phosphorylation incubated for 1 hrs by Western blot method; type: cell-based
[27] = Tmax in Sprague-Dawley rat at 10 mg/kg, po; type: ADME, organism-based; settings: in vivo
[28] = AUCt in Sprague-Dawley rat at 10 mg/kg, po; type: ADME, organism-based; settings: in vivo
[29] = MRT in Sprague-Dawley rat at 2 mg/kg, iv; type: ADME, organism-based; settings: in vivo
[30] = AUC in Sprague-Dawley rat at 10 mg/kg, po; type: ADME, organism-based; settings: in vivo
[31] = Tmax in C57BL/6J mouse at 10 mg/kg, po; type: ADME, organism-based; settings: in vivo
[32] = Cmax in Sprague-Dawley rat at 10 mg/kg, po; type: ADME, organism-based; parameters: dose 10 mg/kg, route oral; settings: in vivo
[33] = system: Hepatocyte; experiment: Inhibition of glucose production in Sprague-Dawley rat primary hepatocytes grown under gluconeogenic medium assessed as glucose production level at 10 uM incubated for 6 hrs by glucose assay reagent based glucose oxidase method (reference value: 100%); type: functional; parameters: scale not given: the % may be the effect or the level left
[34] = Cmax in C57BL/6J mouse at 10 mg/kg, po; type: ADME, organism-based; parameters: dose 10 mg/kg, route oral; settings: in vivo
[35] = system: L6; experiment: Stimulation of glucose consumption in rat L6 cells at 20 uM incubated for 12 hrs by glucose assay reagent based glucose oxidase method relative to untreated control; type: functional
[36] = system: L6; experiment: Inhibition of oxygen consumption rate in rat L6 cells assessed as oxygen consumption level at 10 uM (reference value: 100 +/- 1.6%); type: functional; parameters: scale not given: the % may be the effect or the level left
[37] = MRT in Sprague-Dawley rat at 10 mg/kg, po; type: ADME, organism-based; settings: in vivo
[38] = molecular target: AMP-activated protein kinase alpha-2/beta-2/gamma-2 (Homo sapiens) (UniProt P54646+O43741+Q9UGJ0); experiment: Activation of human recombinant AMPKalpha2beta2gamma2 expressed in Escherichia coli at 20 uM incubated for 1 hr using serine/threonine kinase substrate
[39] = system: L6; experiment: Activation of AMPKalpha in rat L6 cells assessed as increase in AMPKalpha Thr172 phosphorylation incubated for 1 hrs by Western blot method; type: cell-based
[40] = molecular target: AMPK alpha1/beta2/gamma1 (Homo sapiens) (UniProt O43741+P54619+Q13131); experiment: Activation of human recombinant AMPKalpha1beta2gamma1 expressed in Escherichia coli at 20 uM incubated for 1 hr using serine/threonine kinase substrate
[41] = system: L6; experiment: Inhibition of oxygen consumption rate in rat L6 cells; type: functional, cell-based
[42] = system: Rattus norvegicus; experiment: Clearance in Sprague-Dawley rat at 2 mg/kg, iv; type: ADME, organism-based; settings: in vivo
[43] = molecular target: AMP-activated protein kinase alpha-2/beta-1/gamma-3 (Homo sapiens) (UniProt P54646+Q9Y478+Q9UGI9); experiment: Activation of human recombinant AMPKalpha2beta1gamma3 expressed in Escherichia coli at 20 uM incubated for 1 hr using serine/threonine kinase substrate
[44] = AUCt in C57BL/6J mouse at 10 mg/kg, po; type: ADME, organism-based; settings: in vivo
[45] = Half life in Sprague-Dawley rat at 10 mg/kg, po; type: ADME, organism-based; settings: in vivo
[46] = system: Mus musculus; experiment: Antidiabetic activity in db/db mouse assessed as reduction in fasting blood glucose level at 120 mg/kg/day dosed via gavage for 4 weeks measured during 2 to 4 weeks; type: functional, organism-based
[47] = AUC in Sprague-Dawley rat at 2 mg/kg, iv; type: ADME, organism-based; settings: in vivo

AMP-activated protein kinase (AMPK) alpha-1/beta-1/gamma-1 (Homo sapiens), sequence (P54619 whole entry): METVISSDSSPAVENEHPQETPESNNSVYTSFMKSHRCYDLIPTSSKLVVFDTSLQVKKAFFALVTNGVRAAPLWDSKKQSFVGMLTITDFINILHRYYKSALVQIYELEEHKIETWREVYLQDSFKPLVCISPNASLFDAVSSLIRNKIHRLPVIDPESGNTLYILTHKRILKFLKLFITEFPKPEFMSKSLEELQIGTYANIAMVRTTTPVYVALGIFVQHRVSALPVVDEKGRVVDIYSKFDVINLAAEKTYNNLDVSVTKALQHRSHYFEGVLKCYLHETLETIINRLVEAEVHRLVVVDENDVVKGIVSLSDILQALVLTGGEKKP
AMP-activated protein kinase (AMPK) alpha-1/beta-1/gamma-1 (Homo sapiens), sequence (Q13131 whole entry partner): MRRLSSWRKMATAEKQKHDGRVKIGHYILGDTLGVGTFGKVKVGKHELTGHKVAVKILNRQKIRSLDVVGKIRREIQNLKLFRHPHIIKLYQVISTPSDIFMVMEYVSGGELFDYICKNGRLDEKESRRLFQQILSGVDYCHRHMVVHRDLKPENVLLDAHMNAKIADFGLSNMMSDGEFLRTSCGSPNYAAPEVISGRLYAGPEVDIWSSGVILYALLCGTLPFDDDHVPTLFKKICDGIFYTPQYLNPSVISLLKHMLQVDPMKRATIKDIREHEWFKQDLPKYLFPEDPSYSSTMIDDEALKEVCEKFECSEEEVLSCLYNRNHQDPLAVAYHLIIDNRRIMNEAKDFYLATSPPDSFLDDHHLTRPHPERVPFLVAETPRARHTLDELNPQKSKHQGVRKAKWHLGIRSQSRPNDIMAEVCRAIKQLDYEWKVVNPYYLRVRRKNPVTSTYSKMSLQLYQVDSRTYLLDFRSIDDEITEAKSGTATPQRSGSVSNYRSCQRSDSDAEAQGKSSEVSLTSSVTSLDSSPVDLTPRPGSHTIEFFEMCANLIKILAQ
AMP-activated protein kinase (AMPK) alpha-1/beta-1/gamma-1 (Homo sapiens), sequence (Q9Y478 2-270 partner limits assumed): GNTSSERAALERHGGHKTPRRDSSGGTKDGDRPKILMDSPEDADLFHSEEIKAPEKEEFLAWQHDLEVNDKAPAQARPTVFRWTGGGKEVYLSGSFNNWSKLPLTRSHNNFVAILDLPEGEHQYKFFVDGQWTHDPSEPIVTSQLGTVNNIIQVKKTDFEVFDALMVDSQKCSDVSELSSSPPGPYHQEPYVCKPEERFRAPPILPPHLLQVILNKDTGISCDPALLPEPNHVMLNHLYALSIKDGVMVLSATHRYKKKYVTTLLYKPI
AMPK alpha2/beta1/gamma1 (Homo sapiens), sequence (P54619 whole entry partner): as the sequence (P54619 whole entry) above
AMPK alpha2/beta1/gamma1 (Homo sapiens), sequence (P54646 whole entry): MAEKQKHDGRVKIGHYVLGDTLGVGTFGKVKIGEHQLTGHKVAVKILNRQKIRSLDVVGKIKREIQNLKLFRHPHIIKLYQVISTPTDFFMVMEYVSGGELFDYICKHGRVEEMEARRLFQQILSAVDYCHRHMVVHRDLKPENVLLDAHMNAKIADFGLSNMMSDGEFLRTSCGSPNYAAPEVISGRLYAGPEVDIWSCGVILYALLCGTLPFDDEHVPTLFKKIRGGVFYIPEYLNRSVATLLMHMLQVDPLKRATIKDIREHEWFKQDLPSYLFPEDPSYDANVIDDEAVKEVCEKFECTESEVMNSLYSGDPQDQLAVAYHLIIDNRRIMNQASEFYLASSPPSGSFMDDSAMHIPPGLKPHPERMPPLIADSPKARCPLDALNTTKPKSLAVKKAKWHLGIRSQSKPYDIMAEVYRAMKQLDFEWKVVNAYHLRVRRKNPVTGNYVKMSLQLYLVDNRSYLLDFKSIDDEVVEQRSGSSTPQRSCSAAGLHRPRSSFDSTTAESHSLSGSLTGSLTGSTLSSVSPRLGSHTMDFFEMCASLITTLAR
AMPK alpha2/beta1/gamma1 (Homo sapiens), sequence (Q9Y478 2-270 partner limits assumed): as the sequence (Q9Y478 2-270 partner limits assumed) above
AMPK alpha1/beta2/gamma1 (Homo sapiens), sequence (O43741 whole entry, looked up): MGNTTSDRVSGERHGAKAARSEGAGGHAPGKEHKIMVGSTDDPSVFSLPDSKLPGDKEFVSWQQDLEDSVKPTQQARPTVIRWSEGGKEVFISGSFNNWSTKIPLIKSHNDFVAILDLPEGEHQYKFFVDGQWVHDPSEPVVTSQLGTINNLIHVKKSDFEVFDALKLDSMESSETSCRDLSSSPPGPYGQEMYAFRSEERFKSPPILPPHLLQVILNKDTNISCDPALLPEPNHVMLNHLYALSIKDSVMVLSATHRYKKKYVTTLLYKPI
AMPK alpha1/beta2/gamma1 (Homo sapiens), sequence (P54619 whole entry, looked up): as the sequence (P54619 whole entry) above
AMPK alpha1/beta2/gamma1 (Homo sapiens), sequence (Q13131 whole entry, looked up): as the sequence (Q13131 whole entry partner) above
AMP-activated protein kinase alpha-2/beta-2/gamma-2 (Homo sapiens), sequence (O43741 whole entry, looked up): as the sequence (O43741 whole entry, looked up) above
AMP-activated protein kinase alpha-2/beta-2/gamma-2 (Homo sapiens), sequence (P54646 whole entry, looked up): as the sequence (P54646 whole entry) above
AMP-activated protein kinase alpha-2/beta-2/gamma-2 (Homo sapiens), sequence (Q9UGJ0 whole entry, looked up): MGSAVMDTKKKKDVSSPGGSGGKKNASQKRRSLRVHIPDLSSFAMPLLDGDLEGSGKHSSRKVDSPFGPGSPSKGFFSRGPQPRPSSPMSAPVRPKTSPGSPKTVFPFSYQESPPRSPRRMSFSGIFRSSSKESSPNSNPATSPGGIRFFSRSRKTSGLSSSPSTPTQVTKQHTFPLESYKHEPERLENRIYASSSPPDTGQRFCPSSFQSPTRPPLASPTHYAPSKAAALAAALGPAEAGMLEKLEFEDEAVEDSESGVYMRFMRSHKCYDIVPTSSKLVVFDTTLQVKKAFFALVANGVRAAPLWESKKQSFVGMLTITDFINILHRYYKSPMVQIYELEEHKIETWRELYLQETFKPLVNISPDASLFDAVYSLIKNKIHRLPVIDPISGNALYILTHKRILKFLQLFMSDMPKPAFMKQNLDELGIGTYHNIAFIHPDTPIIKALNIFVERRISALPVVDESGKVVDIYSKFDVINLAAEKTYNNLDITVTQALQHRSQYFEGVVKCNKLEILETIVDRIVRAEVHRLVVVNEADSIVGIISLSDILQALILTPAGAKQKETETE

Activity [2]: inactive
inhibition [4]: Dose-dependent effect
Tmax [6]: 0.25 h
Activity [9]: inactive
Cmax [12]: 114 ng/mL
MRT [16]: 5.1 h
AUC [18]: 244 ng·h/mL
Activity [20]: inactive
AUC(0-t) [21]: 364 ng·h/mL
bioavailability [22]: 45.4%
half-life [23]: 10.8 h
Activity [24]: inactive
Activity [25]: inactive
Tmax [27]: 0.5 h
AUC(0-t) [28]: 825 ng·h/mL
MRT [29]: 5.8 h
AUC [30]: 889 ng·h/mL
Tmax [31]: 0.25 h
Cmax [32]: 162 ng/mL
Cmax [34]: 113 ng/mL
MRT [37]: 5.5 h
Activity [38]: inactive
Activity [40]: inactive
clearance [42]: 76.7 mL/min/kg
Activity [43]: inactive
AUC(0-t) [44]: 188 ng·h/mL
half-life [45]: 7.2 h
AUC [47]: 432 ng·h/mL
Compound: CCc1cc2c(s1)CCN1Cc3c(OC)ccc(OC)c3CC21 (configuration not stated)
Activity [1]: 14.9%
Activity [3]: 59.5%
Activity [5]: 41.7%
Activity [7]: 47.5%
Activity [8]: 76.2%
Activity [10]: 66.3%
Activity [11]: 25.7%
Ratio [13]: 1.7
IC50 [14]: 10.5 µM
inhibition [15]: Dose-dependent effect
Activity [17]: inactive
Activity [19]: 54%
Activity [26]: Dose-dependent effect
Activity [33]: 16.3%
Activity [35]: 228.3%
Activity [36]: 54%
Activity [39]: Dose-dependent effect
inhibition [41]: Dose-dependent effect
Activity [46]: Active

Source: ChEMBL document CHEMBL4130473, “Design, synthesis and biological evaluation of 4,7,12,12a-tetrahydro-5H-thieno[3',2':3,4]pyrido[1,2-b]isoquinolines as novel adenosine 5'-monophosphate-activated protein kinase (AMPK) indirect activators for the treatment of type 2 diabetes” (Eur J Med Chem, 2017)
